Measured values published in ChEMBL document CHEMBL1201862, “PubChem BioAssay data set” (2004).
Activity calls are given as the source filed them.

Tests used:
Large T antigen = Large T antigen (Simian virus 40, UniProt P03070); type: functional, Betapolyomavirus macacae;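 further: Confirmatory-stage PubChem screen for compounds that inhibit SV40 T antigen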
[1] = molecular target: FAD-linked sulfhydryl oxidase ALR (Homo sapiens, UniProt P55789); assay: inhibitors of human ALR sulfhydryl oxidase, dose response, biochemical, H2O2 detection, luminescence, cherry-pick (AID 493248)
[2] = tested on: Streptococcus sp. 'group A'; assay: growth inhibition of control SK(-) GAS strain, dose response, counter-screen for streptokinase expression inhibitor project, luminescence, kanamycin, BacTiterGlo, confirmation (AID 1900); type: functional, organism-based
[3] = molecular target: T1, Heat shock factor protein 1 (Mus musculus, UniProt P38532); assay: inhibition of MG132-induced HSE-luciferase signal, confirmation, cell-based, NIH3T3, luminescence, dose retest (AID 2382); type: functional;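 further: NIH3T3 fibroblasts with HSF1-driven luciferase reporter stressed by proteasome inhibitor MG132; luminescence from HSF1-driven luciferase expression after 8 hours of MG132 stress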
T1 sequence (P38532 whole entry): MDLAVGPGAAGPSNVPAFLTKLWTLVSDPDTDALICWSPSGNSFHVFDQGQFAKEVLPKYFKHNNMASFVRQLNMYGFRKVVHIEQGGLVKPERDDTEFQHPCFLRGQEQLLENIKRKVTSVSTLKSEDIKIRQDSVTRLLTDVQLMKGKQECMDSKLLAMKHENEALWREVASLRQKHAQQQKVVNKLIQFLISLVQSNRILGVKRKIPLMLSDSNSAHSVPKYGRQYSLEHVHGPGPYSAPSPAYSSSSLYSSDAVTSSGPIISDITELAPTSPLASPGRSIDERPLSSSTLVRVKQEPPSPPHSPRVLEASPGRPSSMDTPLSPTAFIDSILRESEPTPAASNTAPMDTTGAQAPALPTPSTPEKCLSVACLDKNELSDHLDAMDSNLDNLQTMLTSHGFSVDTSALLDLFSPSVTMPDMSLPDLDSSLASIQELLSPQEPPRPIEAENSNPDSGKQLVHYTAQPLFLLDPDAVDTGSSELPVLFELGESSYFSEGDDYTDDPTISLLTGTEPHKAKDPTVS

[4] = inhibitors of intracellular T. cruzi replication, confirmation, NIH3T3 host cells, beta-gal luminescence (AID 2044); type: functional, cell-based;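 further: intracellular parasites grown in NIH/3T3 mouse fibroblasts as host cells; luminescent beta-galactosidase reporter signal from transgenic T. cruzi replicating inside host cells; inhibitors lower the luminescence signal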
[5] = cytotoxicity toward NIH3T3 fibroblasts, dose response, counter-screen, cell-based, ATP luminescence, mouse fibroblasts (AID 2010); type: functional;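 further: cells exposed to compound for about 90 hours before reading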
Streptococcus = assay: Group A Streptococcus viability loss, dose response, counter-screen for streptokinase expression inhibitor project, luminescence, BacTiterGlo (AID 1915); type: functional, organism-based;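 further: potency for reduction of bacterial viability or growth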
H9c2 = assay: cells; type: functional, cell-based; details: Rattus norvegicus, H9c2, Myocardium;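 further: confirmatory concentration-response retest of ultra-high-throughput screening hits for modulation of myocardial damage; cell death induced by hydrogen peroxide oxidative stress; compound pretreatment for 60 min then peroxide exposure for 2 h; potency is for protecting the cells against peroxide damage rather than for killing them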
[6] = molecular target: T2, Ubiquitin-conjugating enzyme E2 N (Homo sapiens, UniProt P61088); type: functional;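 further: Dose-response confirmation in a TR-FRET assay detecting UBC13-driven polyubiquitin chain formation, inhibition measured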
T2 sequence (P61088 whole entry): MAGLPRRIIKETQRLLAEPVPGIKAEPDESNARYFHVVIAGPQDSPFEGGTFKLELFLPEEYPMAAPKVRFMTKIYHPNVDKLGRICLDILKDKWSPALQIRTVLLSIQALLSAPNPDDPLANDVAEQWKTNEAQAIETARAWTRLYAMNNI

[7] = NIH-3T3 fibroblast cytotoxicity, dose response, cytotoxicity control, cell-based, fluorescence, Alamar Blue, secondary assay (AID 2327); type: functional;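 further: NIH-3T3 mouse fibroblasts cultured with fluconazole at 8 µg/mL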
Streptokinase A = molecular target: T3, Streptokinase A (Streptococcus pyogenes serotype M1, UniProt P10520); assay: S. pyogenes streptokinase expression inhibitors, potency, dose response, plasminogen activation absorbance, OD405 (AID 1914); type: functional, Streptococcus pyogenes M1 GAS;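 further: secreted streptokinase activity via plasminogen activation per viability signal from cell pellet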
T3 sequence (P10520 whole entry): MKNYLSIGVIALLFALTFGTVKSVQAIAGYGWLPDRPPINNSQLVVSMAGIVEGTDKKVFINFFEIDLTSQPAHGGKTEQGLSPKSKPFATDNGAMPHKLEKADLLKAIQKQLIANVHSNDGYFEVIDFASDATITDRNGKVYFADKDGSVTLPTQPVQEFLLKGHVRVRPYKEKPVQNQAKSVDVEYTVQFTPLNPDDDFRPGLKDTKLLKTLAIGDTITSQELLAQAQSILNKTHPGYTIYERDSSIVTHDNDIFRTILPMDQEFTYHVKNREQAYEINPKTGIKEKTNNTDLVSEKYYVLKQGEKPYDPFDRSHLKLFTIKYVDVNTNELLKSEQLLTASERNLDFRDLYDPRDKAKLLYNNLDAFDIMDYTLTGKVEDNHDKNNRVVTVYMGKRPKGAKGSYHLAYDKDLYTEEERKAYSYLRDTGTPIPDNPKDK

[8] = C. albicans growth with fluconazole, confirmation, fluorescence, retest (AID 2467); type: functional, cell-based
[9] = molecular target: Glyceraldehyde-3-phosphate dehydrogenase (Homo sapiens, UniProt P04406)
INS1 = assay: beta cell apoptosis inhibitors, cytokine rescue, dose response, luminescence, retest (AID 449756); type: functional, cell-based; details: Rattus norvegicus;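 further: cell death triggered by IL-1 beta plus TNF-alpha plus IFN-gamma mixture; protective hits raise ATP signal compared with cytokine alone wells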
[10] = Shn3 3'UTR reporter inhibitors, dose response, cell-based, Clone20 osteoblasts, firefly luciferase, cherry-picked (AID 624132); type: functional;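 further: firefly luciferase luminescence from reporter carrying the Shn3 3'UTR in osteoblasts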
[11] = HepG2 cell cytotoxicity, dose response, cytotoxicity control for Shn3 inhibitor project, CellTiter-Glo, cherry-picked (AID 624134); type: functional, cell-based
[12] = control 3'UTR Renilla luciferase suppression, dose response, counter-screen for Shn3 inhibitor project, cell-based, Clone20-Shn3RL, cherry-picked (AID 624133); type: functional
[13] = molecular target: T1, Heat shock factor protein 1; assay: HSF1 potentiators in luciferase reporter cells, confirmation, cell-based, NIH3T3, luminescence, dose retest (AID 435004); type: functional;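 further: stress induced by proteasome inhibitor MG132 added 30 min after compound; luciferase reporter driven by HSF1 response element in NIH3T3 cells; actives raise luminescence as potentiators of the MG132 stress response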
Paired box protein Pax-8 = Paired box protein Pax-8 (Homo sapiens, UniProt Q06710); assay: inhibitors of PAX8-driven TPO luciferase reporter, dose response, RMG-I cells, cherry-pick (AID 687027); type: functional, cell-based;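 further: luciferase reporter driven by Pax8 target thyroperoxidase promoter measured by SteadyGlo luminescence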
[14] = molecular target: T4, Rac GTPase-activating protein 1 (Homo sapiens, UniProt Q9H0H5); assay: MgcRacGAP GTPase-activating activity inhibitors, confirmation, biochemical, ADP Hunter fluorescence, primary and confirmatory (AID 624330); type: functional
T4 sequence (Q9H0H5 whole entry): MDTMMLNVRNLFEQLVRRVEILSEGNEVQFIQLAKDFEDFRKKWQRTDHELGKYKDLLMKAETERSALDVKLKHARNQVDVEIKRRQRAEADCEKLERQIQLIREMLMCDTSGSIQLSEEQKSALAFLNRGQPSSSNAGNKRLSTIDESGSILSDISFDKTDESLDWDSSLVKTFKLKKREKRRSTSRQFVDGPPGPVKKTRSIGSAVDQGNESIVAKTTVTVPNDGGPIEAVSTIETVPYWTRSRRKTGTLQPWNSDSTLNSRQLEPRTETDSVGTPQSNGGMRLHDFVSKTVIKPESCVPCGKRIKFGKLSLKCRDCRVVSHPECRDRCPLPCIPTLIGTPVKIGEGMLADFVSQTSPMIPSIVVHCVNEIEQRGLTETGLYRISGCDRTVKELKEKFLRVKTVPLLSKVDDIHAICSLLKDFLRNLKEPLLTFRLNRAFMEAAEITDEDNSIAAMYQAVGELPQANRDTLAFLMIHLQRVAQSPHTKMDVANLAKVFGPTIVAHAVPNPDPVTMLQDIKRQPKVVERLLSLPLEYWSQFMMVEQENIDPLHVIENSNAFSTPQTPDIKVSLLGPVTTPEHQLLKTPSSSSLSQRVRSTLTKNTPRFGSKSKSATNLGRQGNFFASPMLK

Chain of Glyceraldehyde-3-phosphate dehydrogenase (P04406 whole entry): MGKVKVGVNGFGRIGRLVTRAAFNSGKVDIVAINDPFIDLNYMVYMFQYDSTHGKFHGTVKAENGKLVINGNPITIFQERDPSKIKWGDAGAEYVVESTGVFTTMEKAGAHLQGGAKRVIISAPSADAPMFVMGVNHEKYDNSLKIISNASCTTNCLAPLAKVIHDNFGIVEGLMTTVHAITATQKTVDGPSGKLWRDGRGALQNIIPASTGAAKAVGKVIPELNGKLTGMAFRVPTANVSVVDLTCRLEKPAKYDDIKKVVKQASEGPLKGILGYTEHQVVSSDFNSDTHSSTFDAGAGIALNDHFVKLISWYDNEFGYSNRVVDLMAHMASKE
Chain of Large T antigen (P03070 whole entry): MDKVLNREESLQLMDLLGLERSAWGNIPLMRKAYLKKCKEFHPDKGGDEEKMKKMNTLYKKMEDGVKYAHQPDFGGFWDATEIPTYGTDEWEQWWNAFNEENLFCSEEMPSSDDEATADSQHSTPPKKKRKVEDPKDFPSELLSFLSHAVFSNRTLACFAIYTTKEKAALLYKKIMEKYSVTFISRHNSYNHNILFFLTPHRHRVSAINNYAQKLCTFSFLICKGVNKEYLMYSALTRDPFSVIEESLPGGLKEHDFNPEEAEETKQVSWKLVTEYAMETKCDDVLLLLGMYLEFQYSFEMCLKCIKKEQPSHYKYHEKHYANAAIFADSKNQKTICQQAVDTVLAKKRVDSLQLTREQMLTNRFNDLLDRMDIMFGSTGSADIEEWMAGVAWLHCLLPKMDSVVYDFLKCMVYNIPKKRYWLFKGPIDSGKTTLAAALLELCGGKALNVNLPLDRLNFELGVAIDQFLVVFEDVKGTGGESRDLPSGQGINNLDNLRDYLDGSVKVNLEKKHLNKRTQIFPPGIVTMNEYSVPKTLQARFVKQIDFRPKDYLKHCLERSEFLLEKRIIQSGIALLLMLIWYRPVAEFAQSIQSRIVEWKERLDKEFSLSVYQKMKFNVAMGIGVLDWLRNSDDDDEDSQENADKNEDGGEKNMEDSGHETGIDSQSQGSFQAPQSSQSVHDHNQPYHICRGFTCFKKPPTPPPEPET
Chain of Paired box protein Pax-8 (Q06710 whole entry): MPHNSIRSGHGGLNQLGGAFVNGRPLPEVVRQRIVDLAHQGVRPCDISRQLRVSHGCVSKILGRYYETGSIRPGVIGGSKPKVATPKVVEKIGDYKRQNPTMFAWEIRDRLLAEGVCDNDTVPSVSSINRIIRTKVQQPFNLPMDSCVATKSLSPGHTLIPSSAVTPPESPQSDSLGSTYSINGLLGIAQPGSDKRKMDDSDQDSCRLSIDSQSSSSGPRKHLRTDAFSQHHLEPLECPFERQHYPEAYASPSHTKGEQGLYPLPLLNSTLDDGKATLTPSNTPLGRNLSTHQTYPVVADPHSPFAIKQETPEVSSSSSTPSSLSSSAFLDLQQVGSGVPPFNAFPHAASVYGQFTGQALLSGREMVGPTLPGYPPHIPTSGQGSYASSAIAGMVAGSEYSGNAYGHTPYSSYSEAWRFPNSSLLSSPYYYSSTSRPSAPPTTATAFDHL
Chain of FAD-linked sulfhydryl oxidase ALR (P55789 whole entry): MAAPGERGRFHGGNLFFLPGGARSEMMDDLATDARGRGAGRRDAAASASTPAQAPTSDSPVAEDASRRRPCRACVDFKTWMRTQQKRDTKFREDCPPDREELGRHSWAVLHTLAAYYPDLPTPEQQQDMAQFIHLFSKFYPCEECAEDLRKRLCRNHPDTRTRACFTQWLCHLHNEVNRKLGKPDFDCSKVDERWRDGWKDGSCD

COc1ccc(-c2cc(=O)oc3c(O)c(O)ccc23)cc1
IC50 (Large T antigen): 8.81 µM (active)
AC50 [1]: 1.35 µM (active)

O=C(COc1ccc(F)cc1Cl)Nc1nc(-c2ccccn2)cs1
EC50 [2]: 0.751 µM (active)
EC50 [3]: 41.4 µM (active)
EC50 [4]: 1.57 µM (active)
EC50 [5]: 3.74 µM (active)
EC50 (Streptococcus): 3.29 µM (active)
IC50 (H9c2): > 79 µM (inactive)

CCCCCCCCC(=O)N1CCN(c2cc3c(cc2F)c(=O)c(C(=O)O)cn3CC)CC1
IC50 [6]: > 20 µM (inactive)

O=C(COc1ccc(F)cc1)Nc1nc(-c2ccccn2)cs1
EC50 [7]: > 150 µM (inactive)
EC50 [2]: 7.19 µM (active)
EC50 (Streptokinase A): > 150 µM (not active)
EC50 [8]: 2.59 µM (active)
EC50 (Streptococcus): 16.1 µM (active)
IC50 (H9c2): 16.1 µM (active)

O=C(O)c1cc(S(=O)(=O)Nc2cccc(Cl)c2)ccc1O
IC50 [9]: > 100 µM (not active)

O=C(CCC(=O)N1CCOc2ccc(Cl)cc21)NCCCN1CCN(c2ccccc2F)CC1
IC50 [6]: > 20 µM (inactive)

NS(=O)(=O)c1ccc(NS(=O)(=O)c2ccc(O)c(C(=O)O)c2)cc1
IC50 [9]: > 100 µM (not active)

CN(C)S(=O)(=O)c1ccc(Oc2ccc(S(=O)(=O)N(C)C)cc2)cc1
AC50 (INS1): 6.33 µM (active)
AC50 [10]: 3.04 µM (active)
AC50 [11]: 53.5 µM (active)
AC50 [12]: 12.1 µM (active)

Cc1cc(C)c(C(=O)/C=C/c2cccc3ccccc23)c(O)n1
EC50 [13]: 6.62 µM (active)
AC50 (Paired box protein Pax-8): 5.27 µM (active)

Cc1cc(C)cc(OCC(=O)Nc2cccc(-c3nnc(-c4ccco4)o3)c2)c1
IC50 (H9c2): 9.22 µM (active)

O=C(NCC1CCCO1)C(c1ccc(F)cc1)N(C(=O)Cn1nnc(-c2ccc(F)cc2)n1)c1cccc(O)c1 (configuration not stated)
IC50 (H9c2): > 79 µM (inactive)

Cc1cccc(N2C(=O)C(Cl)=C(N3CCN(Cc4ccc5c(c4)OCO5)CC3)C2=O)c1
IC50 [9]: > 50 µM (inconclusive)

COC(=O)Oc1ccc(/C=C/C(=O)OC(C)C)cc1OC(=O)OC
IC50 (H9c2): > 79 µM (inactive)
AC50 [10]: 3.29 µM (active)
AC50 [12]: 2.56 µM (active)

CC(C)(C)OC(=O)NCCCCCNC(=O)c1[nH]cnc1C(=O)Nc1ccc(Cl)cc1
IC50 (H9c2): > 79 µM (inactive)

O=C(c1ccc(-c2nc3ccccc3s2)o1)N1CCN(c2ccccc2O)CC1
IC50 (H9c2): > 79 µM (inactive)

O=C1C(Cl)=C(N2CCN(CCOCCO)CC2)C(=O)N1c1ccc(Cl)nc1
IC50 [9]: > 50 µM (inconclusive)

O=Cc1ccc(OCc2cccc(C(F)(F)F)c2)cc1O
IC50 (H9c2): > 79 µM (inactive)

Cc1cc(C)cc(N(CCC#N)C(=O)COC(=O)Cn2[nH]c(=O)c3ccccc3c2=O)c1
IC50 (H9c2): > 79 µM (inactive)

Cn1c(SCc2cccc(Br)c2)nc2ccccc2c1=O
AC50 [10]: 7.68 µM (active)
AC50 [11]: 59.8 µM (active)
AC50 [12]: 3.47 µM (active)

CCCN1CCN(C(=O)CCc2nnc3ccc(N4CCN(c5cccc(OC)c5)CC4)nn23)CC1
IC50 (H9c2): > 79 µM (inactive)

Cc1ccc(S(=O)(=O)CCC(=O)OCC(=O)Nc2cc(S(=O)(=O)N3CCOCC3)ccc2C)cc1
AC50 [10]: 17.8 µM (active)
AC50 [12]: 1.76 µM (active)

Cc1ccc(O)c(CNCCNCc2cc(C)ccc2O)c1
IC50 [6]: > 20 µM (inactive)

COc1cc(OC)cc(C(=O)NNC(=O)CCc2nc(O)c3ccccc3n2)c1
IC50 (H9c2): 19.6 µM (active)

Nc1ccc2c(c1)nc(O)c1ccccc12
IC50 (H9c2): 8.49 µM (active)

CC(=O)Nc1cccc(-c2cc(NC=O)c3ncc(-c4cccc(C(C)=O)c4)n3c2)c1
IC50 (H9c2): > 79 µM (inactive)

CCN(CC(=O)Nc1c(F)cccc1F)C(=O)CCc1nc(O)c2ccccc2n1
IC50 (H9c2): > 79 µM (inactive)

COc1ccc(C=NNc2nc3c(=O)n(C)c(=O)n(C)c3[nH]2)cc1
IC50 (H9c2): > 79 µM (inactive)

Cc1ccc(S(=O)(=O)N2[C@H](c3cccc(Cl)c3)CC(=O)[C@@H]3CN(S(=O)(=O)c4ccccc4C)[C@H](c4ccc(Cl)cc4)C[C@@H]32)cc1
AC50 [10]: 0.289 µM (active)
AC50 [11]: 5.61 µM (active)
AC50 [12]: 0.62 µM (active)

C[C@@H]1CN([C@H](C)CO)S(=O)(=O)c2ccc(C#CC3CCCC3)cc2O[C@@H]1CN(C)C(=O)Cc1ccncc1
AC50 (Paired box protein Pax-8): 16.5 µM (active)

C[C@@H]1CCCCO[C@@H](CN(C)C(=O)Nc2ccc(C(F)(F)F)cc2)[C@H](C)CN([C@@H](C)CO)C(=O)c2cc(NC(=O)Nc3ccc(C(F)(F)F)cc3)ccc2O1
AC50 (Paired box protein Pax-8): 2.31 µM (active)

COc1ccc(Cc2nc3ccccc3n2CC(=O)N/N=C/c2ccc(O)cc2)cc1OC
IC50 (Large T antigen): > 100 µM (active)
AC50 [1]: 0.901 µM (active)

COc1cc(/C=N/NC(=O)CNC(=O)c2ccco2)ccc1O
IC50 (Large T antigen): 6.31 µM (active)
AC50 [1]: 3.47 µM (active)
IC50 [14]: 38.5 µM (active)

Cc1nc(C)c(CC(=O)N/N=C/c2ccc(O)cc2)c(O)n1
AC50 [1]: 2.17 µM (active)
IC50 [14]: 69.6 µM (active)

COc1ccc(F)cc1S(=O)(=O)Nc1cnc2ccccc2c1
IC50 [9]: > 10 µM (inconclusive)

COc1cc2c(OC)c3ccoc3nc2cc1O
IC50 (Large T antigen): 20 µM (active)
AC50 [1]: 0.49 µM (active)
